# Test results taken from patent publication US11028364B2, “Compositions and methods for modulating an immune response” (President and Fellows of Harvard College, priority 2015, dated 2021).
# Legend:
# Assay type in all cases: cell-based, mice
# [1] = tested on: B cells cultured with TFH cells; experiment: in vitro cultures of B and TFH cells (activated culture) with addition of pathway/metabolic inhibitors; conditions: inhibitor added to activated culture (B + TFH), anti-CD3/IgM
# Description: (§1) To determine the mechanisms of how TFH and B cells are altered during direct TFR suppression, an in vitro suppression assay in which TFR cells are cultured with TFH and B cells was utilized. See e.g., Sage et al., J Clin Invest 124, 5191-5204 (2014); Sage et al., Immunity 41, 1026-1039 (2014); Sage et al., Methods Mol Biol 1291, 151-160 (2015). For these assays, FoxP3IRES-GFP mice were immunized with NP-OVA (emulsified in CFA) subcutaneously and isolated draining lymph nodes 7 days later. TFR (sorted as CD4+ICOS+CXCR5+CD19− FoxP3+) cells were added to co-cultures of B (sorted as CD19+) and TFH (sorted as CD4+ICOS+CXCR5+CD19−FoxP3) cells along with anti-CD3 and anti-IgM for 2 to 6 days (FIG. 1A, FIG. 36A, and FIG. 36B).
# To determine if suppressing Myc in activated B cells could recapitulate TFR suppression, in vitro suppression assays were performed in which B cells were cultured with TFH cells, TFH and TFR cells, or TFH cells and the Myc inhibitor 10058-F4 (F4w).
# The mTOR pathway promotes protein synthesis during activation and has been linked to enhancing cellular metabolism. […] In vitro cultures of B and TFH cells were performed along with either the mTORc1 inhibitor rapamycin or TFR cells. […] Akt can act both upstream and downstream of mTOR to mediate activation signaling.
# To determine if inhibiting glycolysis could recapitulate TFR suppression, cultures of B and TFH cells were performed with the addition of 2-deoxyglucose (2DG), a glucose analog that blocks glycolysis.
# Therefore, whether inhibitors of purine metabolism could recapitulate TFR suppression in vitro was determined.
# [2] = tested on: B cells from suppressed cultures; experiment: RNA-seq transcriptional analysis of B cells from suppressed cultures supplemented with IL-21
# Description: In order to determine how B and TFH cells effector states are altered during TFR mediated suppression assays were performed followed by RNA-seq transcriptome analysis. In these experiments B and TFH cells (from immunized FoxP3-IRES-GFP mice) were cultured with or without TFR cells (from immunized ActinCFP FoxP3-IRES-GFP mice) for 6 days in the presence of NP-OVA (the same antigen used to generate the B, TFH and TFR cells). After 4 days of culture, B (sorted as CD19+IA+CD4−) and TFH (sorted as CD4+IA−CD19−CFP−) cells were sorted from the “activated” culture (TFH and B cells alone) or from the “suppressed” culture (TFH, B and TFR cells) and RNAseq transcriptional analysis was performed (FIG. 2A, FIG. 37A and FIG. 37B).
# In order to determine which B cell function genes were rescued at the transcriptional level, RNA-seq transcriptional analysis was performed on B cells from activated cultures, from suppressed cultures, and suppressed cultures supplemented with IL-21. […] In the case of Aicda and Pou2af1, it is possible that this may be due to the epigenetic modification of these gene loci by TFR cells, however this was not tested directly.
# Therefore, IL-21 overcomes TFR suppression by stimulating B cells as well as metabolic pathways.
# [3] = tested on: B cells cultured with TFH and TFR cells (suppressed cultures); experiment: in vitro TFR suppression assay (B, TFH and TFR cells) with addition of cytokine; conditions: for amount of secreted antibody in culture supernatants: compared to activated cultures
# Description: as §1, with “36B). After 6 days of co-culture of B and TFH cells, robust upregulation of the GC B cell marker GL7 was found as well as class switch recombination to IgG1, the predominant class switched isotype in this model (FIG. 1B). In addition, robust quantities of secreted IgG were found in the culture supernatant when B cells were cultured with TFH cells, but not when B cells were cultured alone. […] CD4^+CXCR5^−ICOS^−Foxp3^+ Treg cells were not able to suppress as efficiently as TFR cells did (FIG. 15). […] Therefore, this culture system is a robust model to study TFR suppression of TFH and B cells.” for “36B).”
# It is possible that B cell function genes and multiple metabolic pathways cooperate to induce class switch recombination and antibody production in B cells. […] Therefore, to determine ways to overcome suppressed B cells therapeutically, it is possible that both B cell genes and metabolism would need to be energized to overcome suppression. […] When IL-21 was added to suppression assays, the attenuation in proliferation of B cells mediated by TFR cells was rescued (FIG. 11A).
# Since metabolism is essential to facilitate B cell effector functions and is regulated by TFR cells, the metabolic potential of B cells was assessed in suppressed cultures with the addition of IL-21. […] Similarly, Glut1 expression on TFH cells was rescued when IL-21 was added to suppressed cultures. […] Therefore, addition of IL-21 can rescue the glycolytic function of suppressed B cells. It is possible that IL-21 rescues antibody production primarily through enhancing metabolism. To determine if enhanced glycolysis was required for the IL-21 rescue of antibody production in suppressed cultures, glycolysis was blocked to determine if antibody responses could still be rescued in the absence of enhanced metabolism. […] Therefore, IL-21 renders B cells resistant to TFR mediated suppression primarily by enhancing metabolism.
# Whether IL-21 restored antibody production by acting directly on B cells was determined. Suppression assays were performed using B cells lacking the receptor for IL-21 (Il21r−/−). […] Since upregulation of GL7 is a robust indicator of B cell activation, its expression in suppressed cultures containing either Il21r+/+ B cells or Il21r−/− B cells and supplemented with IL-21 was compared.
# Since IL-21 could be affecting the TFH, B or TFR cell in the suppressed culture, whether the rescue of suppressed metabolism could be due to a combined effect of stimulating B cells and inhibiting TFR suppression (by acting directly on the TFR cell) was determined. […] Therefore, IL-21 rescue of TFR cell suppression of B and TFH cells is the result of modulation of B cells as well as inhibiting TFR cells.
# [4] = Il21r−/− B cells, suppressed cultures plus IL-21
# [5] = cytokine added to suppressed culture
# [6] = cytokine added to suppressed cultures
# [7] = suppressed cultures with vs without IL-21
molecule,measurement,setting,value
"Cn1cnc([N+](=O)[O-])c1Sc1ncnc2nc[nH]c12 [AZA, azathioprine]",class switch recombination (IgG1+GL7+ B cells),[1],potently suppressed
same,secreted antibody / antibody production in culture supernatants,[1],robust suppression
IL-21: cytokine essential in the germinal center reaction,genes differentially expressed on suppression that are rescued (RNA-seq),[2]; 12 genes differential in both suppressed vs IL-21 rescue and suppressed vs activated,only Ighg1 and Ighg2c were ‘rescued’
same,"Aicda, Xbp1 and Pou2af1 transcripts (RNA-seq)",[2]; suppressed plus IL-21 cultures,did not show any evidence of rescue
same,metabolic pathways (ssGSEA on RNA-seq),[2]; suppressed plus IL-21 cultures,some rescue of many metabolic pathways
same,B cell function gene transcripts (RNA-seq),[2]; suppressed vs. suppressed plus IL-21 cultures,"only transcripts for the individual IgG isotypes (Ighg1, Ighg2c, Ighg2b, Igha) showed evidence of significant upregulation"
same,GL7 expression in B cells,"[3]; Il21r+/+ B cells, suppressed cultures plus IL-21",restored
same,GL7 expression in B cells,[3]; [4],not
same,antibody responses (IgG1+GL7+ B cells),[3]; [4],no evidence was found that antibody responses were restored
same,number of B cells,[3]; [4],did not abolish the increase
same,restoration of CSR,[3]; [4],prevent the restoration
same,restoration of Glut1 expression on B cells,[3]; [4],prevent the restoration
same,proliferation of B cells (Cell Trace Violet dilution),[3]; cytokine added to suppressed culture (B + TFH + TFR),rescued
same,class switch recombination (IgG1+GL7+ B cells),"[3]; cytokine added to suppressed culture, compared to activated culture",much higher
same,amount of secreted antibody in culture supernatants,[3]; [5],mostly rescued
same,Glut1 expression on B cells,[3]; [6],completely rescued
same,Glut1 expression on TFH cells,[3]; [6],rescued
same,glucose consumption in the culture,[3]; [6],almost completely rescued
same,lactate production in culture supernatants,[3]; [6],substantially (although not completely) rescue
same,rescue of antibody production when glycolysis is blocked,[3]; suppressed cultures plus IL-21 with addition of 2-deoxyglucose (2DG),not being able to rescue suppression
same,Glut1 expression in TFR cells,[3]; [7],higher
same,intracellular Ki67 staining in TFR cells,[3]; [7],much less
CCc1ccc(/C=C2/SC(=S)NC2=O)cc1 [10058-F4],class switch recombination (IgG1+GL7+ B cells),[1],slight diminishment
same,secreted antibody / antibody production in culture supernatants,[1],robustly attenuated
IL-6: another Stat3 signaling cytokine,amount of secreted antibody in culture supernatants,[3]; [5],able to rescue
same,lactate production in culture supernatants,[3]; [6],substantially (although not completely) rescue
"CN(Cc1cnc2nc(N)nc(N)c2n1)c1ccc(C(=O)N[C@@H](CCC(=O)O)C(=O)O)cc1 [MTX, Methotrexate]",class switch recombination (IgG1+GL7+ B cells),[1],potently suppressed
same,secreted antibody / antibody production in culture supernatants,[1],robustly suppresses
"O=CC[C@@H](O)[C@H](O)[C@H](O)CO [2DG, 2-deoxyglucose]",secreted antibody / antibody production in culture supernatants,[1],robust suppression
"IL-4: cytokine added to suppressed cultures (protein, UniProt P05112 25-153, looked up) Interleukin-4: HKCDITLQEIIKTLNSLTEQKTLCTELTVTDIFAASKNTTEKETFCRAATVLRQFYSHHEKDTRCLGATAQQFHRHKQLIRFLKRLDRNLWGLAGLNSCPVKEANQSTLENFLERLKTIMREKYSKCSS",amount of secreted antibody in culture supernatants,[3]; [5],did not occur
